These results are taken from patent US20260070945A1, “MACROCYCLIC IMMUNOMODULATORS” (Bristol-Myers Squibb Company, priority 2022, published 2026).

Where a SMILES comes first, the peptide text is derived from it. Bridges are numbered along the chain shown (N, C = ends). [ ]: non-standard residue; d: D form. The star is where a group is joined. ξ: configuration not given here. Phe(4-COOH) = N[C@@H](Cc1ccc(C(=O)O)cc1)C(=O)O; Bip = N[C@@H](Cc1ccc(-c2ccccc2)cc1)C(=O)O; Phe(3-Me) = Cc1cccc(C[C@H](N)C(=O)O)c1; Phe(4-F) = N[C@@H](Cc1ccc(F)cc1)C(=O)O; Val(3-OH) = CC(C)(O)[C@H](N)C(=O)O; Cha = N[C@@H](CC1CCCCC1)C(=O)O; Thr(3ξ) = CC(O)[C@H](N)C(=O)O; Carboxymethyl = O=C(O)C*; NMeA = CN[C@@H](C)C(=O)O; Aun = NCCCCCCCCCCC(=O)O; Dab = NCC[C@H](N)C(=O)O; Nva = CCC[C@H](N)C(=O)O; AEEA = NCCOCCOCC(=O)O

This test deals with T1, PD-1/PD-L1 interaction (PE-labeled human PD-L1-Ig binding to Jurkat cell line over-expressing human PD-1) (Homo sapiens, UniProt Q15116).
T1 construct: expressed in transfected cells; host or cells: Jurkat
T1 sequence (Q15116 25-288): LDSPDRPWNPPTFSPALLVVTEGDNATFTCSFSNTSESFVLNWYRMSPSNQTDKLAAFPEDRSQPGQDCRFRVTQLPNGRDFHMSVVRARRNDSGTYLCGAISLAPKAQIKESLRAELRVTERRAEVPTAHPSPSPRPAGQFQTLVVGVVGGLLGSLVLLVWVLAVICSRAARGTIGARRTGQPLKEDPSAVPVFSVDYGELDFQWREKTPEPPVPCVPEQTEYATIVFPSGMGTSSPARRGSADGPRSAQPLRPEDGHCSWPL
The test can be described thus: Jurkat-PD-1 Cell Binding High-Content Screening Assay (CBA). The settings on record: PE-labeled PD-L1-Ig 20 nM final, Jurkat-hPD-1 cells; read-out: Jurkat HPD1 PDL1 IC50. A digest of the protocol: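 In this imaging assay, cells in 10% FCS medium see compound for 2 h at 37 °C and then labeled ligand at 20 nM final for 1 h. Paraformaldehyde fixation, Hoechst 33342 staining and dPBS washes precede image capture.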
The IC50 is the point on the concentration scale where inhibition reaches its midpoint. As to `Cc1cccc(C[C@@H]2NC(=O)[C@H](CC(=O)O)NC(=O)[C@H](Cc3ccc(OCC(=O)O)cc3)NC(=O)[C@H](Cc3ccc(F)cc3)NC(=O)CSC[C@@H](C(=O)N[C@@H](CCN)C(=O)NCCOCCOCC(=O)NCCCCCCCCCCC(=O)O)NC(=O)[C@H](CC(=O)O)NC(=O)[C@H](C(C)C)NC(=O)[C@H](CC3CCCCC3)NC(=O)[C@H](CCN)NC(=O)[C@@H](CC(C)C)NC(=O)[C@H](C)N(C)C(=O)[C@H](Cc3ccc(OCC(=O)O)cc3)NC(=O)[C@H](Cc3ccc(-c4ccccc4)cc3)NC(=O)[C@H](Cc3ccc(OCC(=O)O)cc3)NC2=O)c1` [Example 2559] ({CH2CO}-[Phe(4-F)]Y(Carboxymethyl)D[Phe(3-Me)]Y(Carboxymethyl)[Bip]Y(Carboxymethyl)[NMeA][dL][Dab][Cha]VDC[Dab][AEEA][Aun]-OH; thioether N-14), the IC50 was 0.0286 µM.
As to `Cc1cccc(C[C@@H]2NC(=O)[C@H](CC(=O)O)NC(=O)[C@H](Cc3ccc(OCC(=O)O)cc3)NC(=O)[C@H](Cc3ccc(F)cc3)NC(=O)CSC[C@@H](C(=O)N[C@@H](CCN)C(=O)NCCOCCOCC(=O)NCCCCCCCCCCC(=O)O)NC(=O)[C@H](CCC(=O)O)NC(=O)[C@H](C(C)C)NC(=O)[C@H](CC3CCCCC3)NC(=O)[C@H](CCN)NC(=O)[C@@H](CC(C)C)NC(=O)[C@H](C)N(C)C(=O)[C@H](Cc3ccc(OCC(=O)O)cc3)NC(=O)[C@H](Cc3ccc(-c4ccccc4)cc3)NC(=O)[C@H](Cc3ccc(OCC(=O)O)cc3)NC2=O)c1` [Example 2560] ({CH2CO}-[Phe(4-F)]Y(Carboxymethyl)D[Phe(3-Me)]Y(Carboxymethyl)[Bip]Y(Carboxymethyl)[NMeA][dL][Dab][Cha]VEC[Dab][AEEA][Aun]-OH; thioether N-14), the IC50 came out at 0.0021 µM.
To `CCC[C@@H]1NC(=O)CSC[C@@H](C(=O)N[C@@H](CCN)C(=O)NCCOCCOCC(=O)NCCCCCCCCCCC(=O)O)NC(=O)[C@H](CCC(=O)O)NC(=O)[C@H](CO)NC(=O)[C@H](CC2CCCCC2)NC(=O)[C@H](CCN)NC(=O)[C@@H](CC(C)C)NC(=O)[C@H](C)N(C)C(=O)[C@H](Cc2ccc(OCC(=O)O)cc2)NC(=O)[C@H](Cc2ccc(-c3ccccc3)cc2)NC(=O)[C@H](Cc2ccc(OCC(=O)O)cc2)NC(=O)[C@H](Cc2cccc(C)c2)NC(=O)[C@H](CC(=O)O)NC(=O)[C@H](Cc2ccc(C(=O)O)cc2)NC1=O` [Example 2561] ({CH2CO}-[Nva][Phe(4-COOH)]D[Phe(3-Me)]Y(Carboxymethyl)[Bip]Y(Carboxymethyl)[NMeA][dL][Dab][Cha]SEC[Dab][AEEA][Aun]-OH; thioether N-14) belongs 0.0241 µM; to `Cc1cccc(C[C@@H]2NC(=O)[C@H](CC(=O)O)NC(=O)[C@H](Cc3ccc(C(=O)O)cc3)NC(=O)[C@H](C(C)O)NC(=O)CSC[C@@H](C(=O)N[C@@H](CCN)C(=O)NCCOCCOCC(=O)NCCCCCCCCCCC(=O)O)NC(=O)[C@H](CO)NC(=O)[C@H](C(C)(C)O)NC(=O)[C@H](CC3CCCCC3)NC(=O)[C@H](CCN)NC(=O)[C@@H](CC(C)C)NC(=O)[C@H](C)N(C)C(=O)[C@H](Cc3ccc(C(=O)O)cc3)NC(=O)[C@H](Cc3ccc(-c4ccccc4)cc3)NC(=O)[C@H](Cc3ccc(C(=O)O)cc3)NC2=O)c1` (stereo partly drawn) [Example 2562] ({CH2CO}-[Thr(3ξ)][Phe(4-COOH)]D[Phe(3-Me)][Phe(4-COOH)][Bip][Phe(4-COOH)][NMeA][dL][Dab][Cha][Val(3-OH)]SC[Dab][AEEA][Aun]-OH; thioether N-14), 0.0021 µM.
